Results reported in BindingDB's records for doi:10.1021/jm010853h (Sapienza University of Rome, 2001).

Biological target: T1, Gag-Pol polyprotein [588-1027]/[588-1147] (Human immunodeficiency virus 1, UniProt P04585)
T1 construct: 588-1027; 588-1147
Assay: HIV-1 RT Assay
Conditions: pH 7.8; 37 °C

CCC(c1ccccc1)c1cc(=O)[nH]c(SC2CCCC2)n1 (stereo unspecified) [2-(cyclopentylsulfanyl)-6-(1-phenylpropyl)-3,4-dihydropyrimidin-4-one] gave an IC50 greater than 10 µM.
